≈ marks a conversion by molar mass, not a printed value. Like-named read-outs stand apart in the source and are kept apart here.
Key:
Assay in all cases: microbe, parasite or virus in culture
[1] = test system: T1, Cupriavidus metallidurans AE104; parameters: growth inhibition of bacterial culture by metal chelators
T1 construct: AE104
Source text: EDTA, membrane-permeant TPEN, and DIP complex divalent transition metal cations with similar stability constants, EDTA with Cu > Ni > Zn > Co > Fe = Mn, TPEN with a similar ranking but higher stability constants, and DIP with Cu = Fe > Zn in an inverted arrangement ([43][–][45]). The ∆folE single and double mutants grew with only a slight delay compared to the parental strain AE104 in the presence of TPEN (Fig. S8), and the IC50 values for the ∆folE single mutants and TPEN were not different from that of the parent AE104 (Table S8). When the gene for the zinc importer ZupT was deleted, the IC50 values of all strains decreased below 0.5 µM TPEN, again without differences between the mutants and the ∆zupT parent (Fig. S8C). […] Due to large deviations, not much influence of TPEN on the growth of the ∆folE mutants could be measured. […] In contrast, TPEN mediated an overall decrease of metal availability. In the presence of DIP, growth of both ∆folE_IB mutants of strain AE104 was similar to their parent, but the ∆folE_IA mutant was more sensitive to DIP (Fig. S9A) with a decrease in the IC50 value from about 60 µM to 36 ± 7 µM (Table S8). The zinc content of the four strains in the presence of 25 µM DIP was similar, but the cobalt content was decreased (Table S6). […]

[2] = test system: T1, Cupriavidus metallidurans AE104; parameters: growth inhibition of bacterial culture, final turbidity in TMM medium; conditions: read-out: TMP,
Experimental: Trimethoprim and sulfonamide interfere with THF biosynthesis in steps downstream of the reaction catalyzed by the FolE_I-type enzymes. Neither substance induced an up-regulation of folE_IB1 or folE_IA (Table S2), but TMP did induce expression of pfl-glyA (Table S1). The ∆folE_IB1 mutant of strain AE104 was less resistant to trimethoprim than its wild-type parent or the other two ∆folE deletion mutants (Fig. 7A), and the IC50 for trimethoprim decreased from 4 to 3.3 mg/L (Table S9). Resistance to trimethoprim was not affected in the ∆folE_IB2 ∆folE_IA mutant with FolE_IB1 only, but it was in the two double mutants that carried a ∆folE_IB1 deletion (Fig. 7). Resistance to TMP decreased in the ∆zupT ∆folE_IB1 but not in the ∆zur ∆folE_IB1 mutant (Fig. 7B and C). […] Since TMP decreased the concentration of fTHF as shown by the up-regulation of pfl-glyA-lacZ expression, an increased folate production was needed to counteract inhibition of a later step of folate biosynthesis by TMP. This explains the need for the activity of both FolE_IA and FolE_IB1 to resist TMP inhibition. […] Final turbidity of C. metallidurans strains in medium zinc TMM containing varying concentrations of trimethoprim is shown for derivatives of strain AE104 single (panel A) and double (panel B) mutants, ∆zupT (panel C), and ∆zur single mutants (panel D). […]

[3] = test system: T1, Cupriavidus metallidurans AE104; parameters: growth inhibition of bacterial culture by oxidative stress agents; conditions: read-out: PQ

For `c1ccc(CN(CCN(Cc2ccccn2)Cc2ccccn2)Cc2ccccn2)nc1` [TPEN, N,N,N′,N′-tetrakis(2-pyridinylmethyl)-1,2-ethanediamine], which IC50 ([1]; read-out: TPEN) is on record?
Its IC50 is 1.1 ± 0.4 µM.

For `c1ccc(-c2ccccn2)nc1` [DIP, dipyridyl], which IC50 ([1]; read-out: DIP) is on record?
The IC50 was 57 ± 4 µM.

`COc1cc(Cc2cnc(N)nc2N)cc(OC)c1OC` [TMP, trimethoprim] was tested. Which IC50 [2] did it give?
Its IC50 is 4 ± 0.2 µg/mL (≈ 13.8 µM).

`C[n+]1ccc(-c2cc[n+](C)cc2)cc1` [PQ, paraquat] was tested. Which IC50 [3] did it give?
The IC50 was 181 ± 17 µM.

From paper PMC10882993, “Protecting the Achilles heel: three FolE_I-type GTP-cyclohydrolases needed for full growth of metal-resistant Cupriavidus metallidurans under a variety of conditions” (Journal of Bacteriology, 2024)
